Source: US4683331A, “Omega-(2,4-dihalobiphenylyl) oxo alkanoic acids” (Spofa spojene podniky pro zdravotnickou, priority 1984, dated 1987)

Key:
Carrageenin edema [1] = settings: J. Pharm. Sci. Vol. 66 (1977); cited from earlier work
adjuvant arthritis = settings: J. Pharm. Sci. Vol. 66 (1977); cited from earlier work
in vivo = settings: acute (short-term) toxicity
Carrageenin edema [2] = test: Carrageenin edema; assay type: in vivo; settings: single dose
Experimental: (§1) Anti-inflammatory activity is measured according to
(§2) Carrageenin edema and Freund adjuvans edema. The assay for
Carrageenin edema was performed according to J. Winter, Proc.
Soc. Exptl. Biol. Med. Vol. 111 (1962), p 544. Single oral doses
Edema size was evaluated 1, 24, and 48
(§3) hours after administration of each compound. The assay for Free
(§4) after administration of each compound. All of the tabulated
(§5) values are statistically significant (p < 0.05) except for those

Freund adjuvans edema = test: Freund adjuvans edema; assay type: in vivo; settings: single dose
Experimental: as §1, §2, §3
adjuvans edema was performed according to Z. Horakova and J.
Grimova, Ceskosl. Fys. Vol. 17 (1968), p. 137. Single oral doses
The edema was evaluated 1, and 24 hours
as §4, §5

[3] = 25 mg/kg po, bracketed values not significant
[4] = 10 mg/kg po, bracketed values not significant
[5] = 100 mg/kg po, bracketed values not significant

SMILES	activity for Carrageenin edema (Carrageenin edema [1])	percent inhibition for adjuvant arthritis (adjuvant arthritis)	activity for adjuvant arthritis (in words) (adjuvant arthritis)	LD50 (in vivo)	Carrageenin % inhibition 1 hr (Carrageenin edema [2]; [3])	Carrageenin % inhibition 24 hr (Carrageenin edema [2]; [3])	Carrageenin % inhibition 48 hr (Carrageenin edema [2]; 25 mg/kg po)	Carrageenin % inhibition 1 hr (Carrageenin edema [2]; 100 mg/kg po)	Carrageenin % inhibition 24 hr (Carrageenin edema [2]; 100 mg/kg po)	Carrageenin % inhibition 48 hr (Carrageenin edema [2]; 100 mg/kg po)	Adjuvans % inhibition 1 hr (Freund adjuvans edema; 10 mg/kg po)	Adjuvans % inhibition 24 hr (Freund adjuvans edema; [4])	Adjuvans % inhibition 1 hr (Freund adjuvans edema; 25 mg/kg po)	Adjuvans % inhibition 24 hr (Freund adjuvans edema; [3])	Adjuvans % inhibition 1 hr (Freund adjuvans edema; 100 mg/kg po)	Adjuvans % inhibition 24 hr (Freund adjuvans edema; [5])	Adjuvans % inhibition 1 hr (Freund adjuvans edema; 50 mg/kg po)	Adjuvans % inhibition 24 hr (Freund adjuvans edema; 50 mg/kg po)	Adjuvans % inhibition 1 hr (Freund adjuvans edema; 20 mg/kg po)	Adjuvans % inhibition 24 hr (Freund adjuvans edema; 20 mg/kg po)
O=C(O)CCC(=O)c1ccc(-c2ccc(Cl)cc2)cc1 [4'-Cl-fenbufen]	no activity	61%	–	–	–	–	–	–	–	–	–	–	–	–	–	–	–	–	–	–
O=C(O)CCC(=O)c1ccc(-c2ccc(F)cc2)cc1 [4'-F-fenbufen]	1.7	–	no activity	–	–	–	–	–	–	–	–	–	–	–	–	–	–	–	–	–
CC(CC(=O)c1ccc(-c2ccc(Cl)cc2Cl)cc1)C(=O)O (stereo not drawn) [Compound 1]	–	–	–	450 mg/kg	27%	54%	58%	35%	73%	58%	37%	38%	40%	46%	45%	55%	–	–	–	–
CC(CC(=O)c1ccc(-c2ccc(F)cc2F)cc1)C(=O)O (stereo not drawn) [Compound 2]	–	–	–	500 mg/kg	30%	61%	42%	44%	66%	45%	–	–	56%	32%	–	–	53%	46%	–	–
CC(CC(=O)c1ccc(-c2ccc(F)cc2)cc1)C(=O)O (stereo not drawn) [Compound 3]	–	–	–	500 mg/kg	16%	21%	–	33%	34%	–	37%	31%	–	–	–	–	–	–	42%	39%
O=C(O)CCC(=O)c1ccc(-c2ccccc2)cc1 [Compound 4]	–	–	–	–	40%	14%	–	46%	38%	0%	27%	8%	31%	9%	54%	7%	–	–	–	–
